Read-outs that look alike come from different tables or passages of the source.
Key:
[1] = target: NDM-1 (Klebsiella pneumoniae, UniProt C7C422); test: biochemical; assay type: biochemical; conditions: read-out: NDM-1 IC50
[2] = target: VIM-1 (Pseudomonas aeruginosa (strain ATCC 15692 / DSM 22644 / CIP 104116 / JCM 14847 / LMG 12228 / 1C / PRS 101 / PAO1), UniProt A0A0F7KYQ8); test: Enzyme activity: determination of IC50, fluorescence assay with CCF2-FA substrate (VIM-1); assay type: biochemical
[3] = target: IMP-1 (Serratia marcescens, UniProt P52699); test: biochemical; assay type: biochemical; conditions: read-out: IMP-1 IC50
[4] = system: Serratia marcescens expressing IMP-1 (CL5741); test: Antibiotic potentiation activity: synergistic concentration (MITC95) with imipenem, OD600 growth; assay type: cell-based; conditions: for Serratia marcescens expressing IMP-1 (CL5741) MITC95: concentration giving 95% inhibition of bacterial growth
Outline: (§1)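 Each strain, suspended in saline from overnight colonies and diluted 1:100 into 1.1× CAMHB, is dosed with imipenem at 4 μg/ml (or 1 μg/ml) plus compound, incubated 22–24 h at 35 °C and read by absorbance.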

[5] = system: Escherichia coli expressing NDM-1 (CLB30016); test: as above; assay type: cell-based; conditions: for Escherichia coli expressing NDM-1 (CLB 30016) MITC95: concentration giving 95% inhibition of bacterial growth
Outline: as §1

[6] = system: Klebsiella pneumoniae expressing VIM-1 (IHMA599644); test: as above; assay type: cell-based; conditions: for Klebsiella pneumoniae expressing VIM-1 (IHMA 599644) MITC95: concentration giving 95% inhibition of bacterial growth
Outline: as §1

[7] = NDM-1 enzyme, CCF2-FA fluorescence assay
[8] = VIM-1 enzyme, CCF2-FA fluorescence assay, read-out: VIM-1 IC50
[9] = IMP-1 enzyme, CCF2-FA fluorescence assay
[10] = Serratia marcescens expressing IMP-1 (CL5741), 95% growth inhibition
[11] = Escherichia coli expressing NDM-1 (CLB30016), 95% growth inhibition
[12] = Klebsiella pneumoniae expressing VIM-1 (IHMA599644), 95% growth inhibition
[13] = NDM-1 enzyme, CCF2-FA substrate
[14] = VIM-1 enzyme, CCF2-FA substrate, read-out: VIM-1 IC50
[15] = IMP-1 enzyme, CCF2-FA substrate
[16] = Serratia marcescens CL5741 (IMP-1), 95% growth inhibition
[17] = (CLB30016, NDM-1), 95% growth inhibition
[18] = Klebsiella pneumoniae IHMA599644 (VIM-1), 95% growth inhibition
[19] = fluorescence assay with CCF2-FA substrate
[20] = fluorescence assay with CCF2-FA substrate, read-out: VIM-1 IC50
[21] = VIM-1 IC50, fluorescence assay with CCF2-FA substrate
[22] = CL5741 (IMP-1), 95% inhibition of bacterial growth
[23] = CLB30016 (NDM-1), 95% inhibition of bacterial growth
[24] = IHMA599644 (VIM-1), 95% inhibition of bacterial growth

Sequence of IMP-1 (P52699 whole entry, looked up): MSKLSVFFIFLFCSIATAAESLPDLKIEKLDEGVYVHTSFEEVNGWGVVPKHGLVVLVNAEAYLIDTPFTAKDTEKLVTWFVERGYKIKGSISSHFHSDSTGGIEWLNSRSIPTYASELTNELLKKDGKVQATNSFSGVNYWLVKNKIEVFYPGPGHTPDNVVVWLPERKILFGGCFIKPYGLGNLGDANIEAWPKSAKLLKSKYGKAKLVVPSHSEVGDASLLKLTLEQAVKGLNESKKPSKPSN
Sequence of NDM-1 (C7C422 whole entry, looked up, species assumed): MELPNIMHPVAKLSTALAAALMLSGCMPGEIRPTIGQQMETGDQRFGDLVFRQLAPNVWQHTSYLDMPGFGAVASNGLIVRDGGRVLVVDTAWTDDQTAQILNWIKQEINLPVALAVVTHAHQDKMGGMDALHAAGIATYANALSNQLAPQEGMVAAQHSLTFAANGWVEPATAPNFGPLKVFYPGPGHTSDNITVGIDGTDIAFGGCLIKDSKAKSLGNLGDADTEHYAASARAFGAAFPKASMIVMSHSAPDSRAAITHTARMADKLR

SMILES | IC50 [1, 7] [nM] | IC50 [3, 9] [nM] | Serratia marcescens MITC95 [4, 10] [µM] | Escherichia coli MITC95 [5, 11] [µM] | Klebsiella pneumoniae MITC95 [6, 12] [µM] | IC50 [1, 13] [nM] | IC50 [3, 15] [nM] | Serratia marcescens MITC95 [4, 16] [µM] | Escherichia coli MITC95 [5, 17] [µM] | Klebsiella pneumoniae MITC95 [6, 18] [µM] | IC50 [1, 19] [nM] | IC50 [3, 19] [nM] | also measured
NS(=O)(=O)c1c(C(F)(F)F)ccc(C2CC2)c1-c1nnn[nH]1 [Example 489, 3-cyclopropyl-2-(1H-tetrazol-5-yl)-6-(trifluoromethyl)benzenesulfonamide] | 19.6 | 20.7 | 0.7813 | 1.563 | 9.375 | – | – | – | – | – | – | – | IC50 [2, 8]: 9.83 nM
N=C(N)NC1CCC(CCc2ccc(-c3ccc(C4CCN(C(=N)N)CC4)cc3)c(-c3nn[nH]n3)c2S(N)(=O)=O)CC1 (stereo not drawn) [Example 472, 4-(4′-(2-(4-guanidinocyclohexyl)ethyl)-3′-sulfamoyl-2′-(2H-tetrazol-5-yl)-[1,1′-biphenyl]-4-yl)piperidine-1-carboximidamide] | 0.505 | 0.661 | 0.7813 | 1.172 | 75 | – | – | – | – | – | – | – | IC50 ([2]; VIM-1 IC50, VIM-1 enzyme, CCF2-FA fluorescence assay): 13.4 nM
NS(=O)(=O)c1c(C(F)(F)F)ccc(-c2ccc(S(=O)(=O)CCO)cc2)c1-c1nnn[nH]1 [Example 742, 4′-[(2-hydroxyethyl)sulfonyl]-2-(1H-tetrazol-5-yl)-4-(trifluoromethyl)biphenyl-3-sulfonamide] | – | – | – | – | – | 2.01 | 1.84 | 12.5 | 12.5 | 25 | – | – | IC50 [2, 14]: 0.657 nM
NS(=O)(=O)c1cccc(-c2ccc(CNC3CC(F)(F)C3)cc2)c1-c1nnn[nH]1 [Example 339, 4′-(((3,3-difluorocyclobutyl)amino)methyl)-2-(1H-tetrazol-5-yl)-[1,1′-biphenyl]-3-sulfonamide] | 4.54 | 42.3 | 1.563 | 0.5859 | >200 | – | – | – | – | – | – | – | IC50 [2, 8]: 611 nM
Cc1ccc(Cc2cccc(S(N)(=O)=O)c2-c2nnn[nH]2)cc1 [Example 163, 3-(4-methylbenzyl)-2-(1H-tetrazol-5-yl)benzenesulfonamide] | – | – | – | – | – | – | – | – | – | – | 17.7 | 327 | IC50 [2, 20]: 437 nM; Serratia marcescens expressing IMP-1 (CL5741) MITC95 [4]: 12.5 µM; Escherichia coli expressing NDM-1 (CLB 30016) MITC95 [5]: 3.125 µM; Klebsiella pneumoniae expressing VIM-1 (IHMA 599644) MITC95 [6]: >200 µM
Cn1cncc1C[C@@H](NCc1ccc(-c2cccc(S(N)(=O)=O)c2-c2nnn[nH]2)cc1)C(=O)O [Example 363, 3-methyl-N-{[3′-sulfamoyl-2′-(1H-tetrazol-5-yl)biphenyl-4-yl]methyl}-D-histidine] | 21.4 | 233 | 6.25 | 3.125 | 100 | – | – | – | – | – | – | – | IC50 [2, 8]: 495 nM
CN(C)[C@@H]1CCN(Cc2ccc(-c3cccc(S(N)(=O)=O)c3-c3nnn[nH]3)cc2)C1 [Example 347, 4′-{[(3R)-3-(dimethylamino)pyrrolidin-1-yl]methyl}-2-(1H-tetrazol-5-yl)biphenyl-3-sulfonamide] | 12.2 | 185 | 3.125 | 2.344 | 200 | – | – | – | – | – | – | – | IC50 [2, 8]: 844 nM
CN(CCN1CCCC1)c1ccc(-c2cccc(S(N)(=O)=O)c2-c2nnn[nH]2)cn1 [Example 629, 3-[6-[methyl(2-pyrrolidin-1-ylethyl)amino]-3-pyridyl]-2-(1H-tetrazol-5-yl)benzenesulfonamide] | – | – | – | – | – | 43.6 | 799 | 25 | 4.688 | 100 | – | – | IC50 [2, 14]: 668 nM
NCCN[C@H]1CC[C@H](c2ccc(C(F)(F)F)c(S(N)(=O)=O)c2-c2nnn[nH]2)CC1 [Example 700, 3-{4-[(2-aminoethyl)amino]cyclo-hexyl}-2-(1H-tetrazol-5-yl)-6-(trifluoromethyl)benzene sulfonamide] | – | – | – | – | – | 3.94 | 16.7 | 3.125 | 0.3906 | 1.563 | – | – | IC50 ([2]; VIM-1 IC50, VIM-1 enzyme, CCF2-FA substrate): 0.958 nM
NS(=O)(=O)c1c(C2CC2)ccc(-c2cccc3ncccc23)c1-c1nn[nH]n1 [Example 529, 6-Cyclopropyl-3-(quinolin-5-yl)-2-(2H-tetrazol-5-yl)benzenesulfonamide] | – | – | – | – | – | 2.2 | 6.3 | 0.7813 | 3.906 | 9.375 | – | – | IC50 [2, 14]: 0.991 nM
Cn1cc2cc(-c3cccc(S(N)(=O)=O)c3-c3nnn[nH]3)ccc2n1 [Example 127, 3-(2-methyl-2H-indazol-5-yl)-2-(1H-tetrazol-5-yl)benzenesulfonamide] | – | – | – | – | – | – | – | – | – | – | 1.11 | 157 | IC50 [2, 20]: 84.2 nM; Serratia marcescens expressing IMP-1 (CL5741) MITC95 [4]: 4.688 µM; Escherichia coli expressing NDM-1 (CLB 30016) MITC95 [5]: 1.172 µM; Klebsiella pneumoniae expressing VIM-1 (IHMA 599644) MITC95 [6]: 37.5 µM
CCN1CCC(NCc2ccc(-c3cccc(S(N)(=O)=O)c3-c3nnn[nH]3)cc2)CC1 [Example 352, 4′-{[(1-ethylpiperidin-4-yl)amino]methyl}-2-(1H-tetrazol-5-yl)biphenyl-3-sulfonamide] | 38 | 547 | 6.25 | 1.563 | >200 | – | – | – | – | – | – | – | IC50 [2, 8]: 916 nM
CC(CCCN)N[C@H]1CC[C@H](c2ccc(C(F)(F)F)c(S(N)(=O)=O)c2-c2nnn[nH]2)CC1 (stereo partly drawn) [Example 688, 3-{4-[(4-amino-1-methylbutyl)amino]cyclo-hexyl)-2-(1H-tetrazol-5-yl)-6-(trifluoromethyl)benzene sulfonamide] | – | – | – | – | – | 44.1 | 158 | 6.25 | 1.563 | 12.5 | – | – | IC50 [2, 14]: 13.4 nM
NS(=O)(=O)c1c(C(F)(F)F)ccc(-c2ccc(C3CCN(C[C@H]4CNCCO4)CC3)cc2)c1-c1nnn[nH]1 [Example 670, 4′-{1-[(2R)-morpholin-2-ylmethyl]piperidin-4-yl}-2-(1H-tetrazol-5-yl)-4-(trifluoromethyl)biphenyl-3-sulfonamide] | – | – | – | – | – | 4.11 | 1.08 | 3.125 | 1.563 | 25 | – | – | IC50 [2, 14]: 3.53 nM
NS(=O)(=O)c1cccc(-c2cccc3c2NCCC3)c1-c1nnn[nH]1 [Example 121, 3-(1,2,3,4-tetrahydroquinolin-8-yl)-2-(1H-tetrazol-5-yl)benzenesulfonamide] | – | – | – | – | – | – | – | – | – | – | 7.37 | 373 | IC50 [2, 20]: 187 nM; Serratia marcescens expressing IMP-1 (CL5741) MITC95 [4]: 25 µM; Escherichia coli expressing NDM-1 (CLB 30016) MITC95 [5]: 3.125 µM; Klebsiella pneumoniae expressing VIM-1 (IHMA 599644) MITC95 [6]: >200 µM
N=C(N)N1CCC2(CC1)CCN(c1ccc(C(F)(F)F)c(S(N)(=O)=O)c1-c1nnn[nH]1)CC2 [Example 822, 9-[3-sulfamoyl-2-(1H-tetrazol-5-yl)-4-(trifluoromethyl)phenyl]-3,9-diazaspiro[5.5]undecane-3-carboxamidine] | – | – | – | – | – | – | – | – | – | – | 1.44 | 2.25 | IC50 [2, 21]: 0.195 nM; Serratia marcescens MITC95 [4, 22]: 0.0938 µM; Escherichia coli MITC95 [5, 23]: 0.6406 µM; Klebsiella pneumoniae MITC95 [6, 24]: 1.086 µM
NS(=O)(=O)c1c(C(F)(F)F)ccc(-c2ccc(C3CN(CC4CNC4)C3)cc2)c1-c1nnn[nH]1 [Example 800, 4′-[1-(azetidin-3-ylmethyl)azetidin-3-yl]-2-(1H-tetrazol-5-yl)-4-(trifluoromethyl)biphenyl-3-sulfonamide] | – | – | – | – | – | – | – | – | – | – | 2.68 | 5.14 | IC50 [2, 20]: 14.3 nM; Serratia marcescens MITC95 [4, 22]: 6.25 µM; Escherichia coli MITC95 [5, 23]: 0.7813 µM; Klebsiella pneumoniae MITC95 [6, 24]: 12.5 µM
NCC1CCC(N2CC(c3ccc(-c4ccc(C(F)(F)F)c(S(N)(=O)=O)c4-c4nnn[nH]4)cc3)C2)CC1 (stereo not drawn) [Example 813, 4′-{1-[4-(aminomethyl)cyclohexyl]azetidin-3-yl}-2-(1H-tetrazol-5-yl)-4-(trifluoromethyl)biphenyl-3-sulfonamide] | – | – | – | – | – | – | – | – | – | – | 6.27 | 9.86 | IC50 [2, 21]: 20.6 nM; Serratia marcescens MITC95 [4, 22]: 6.25 µM; Escherichia coli MITC95 [5, 23]: 6.25 µM; Klebsiella pneumoniae MITC95 [6, 24]: 100 µM
